Measured values reported in patent publication US11820822B2, “Methods for sensitizing cancer cells to T cell-mediated killing by modulating molecular pathways” (DANA-FARBER CANCER INSTITUTE, INC., priority 2017, dated 2023).

Columns and labels:
[1] = test system: B16F10-Cas9 cells pulsed with SIINFEKL peptide, co-cultured with OT-I T cells; test: Genome-scale CRISPR-Cas9 screen, selection with OT-I T cells; assay type: cell-based, mouse; conditions: Table 3; B16F10-Cas9 cells pulsed with SIINFEKL, co-cultured with OT-I T cells 1:1 for one day; negative = depleted, positive = enriched
[2] = test system: B16F10-Cas9 cells co-cultured with Pmel-1 T cells; test: Genome-scale CRISPR-Cas9 screen, selection with Pmel-1 T cells; assay type: cell-based, mouse; conditions: Table 3; B16F10-Cas9 cells pre-treated with IFNγ, co-cultured with Pmel-1 T cells 1:1 for three days; negative = depleted, positive = enriched

GCAAATGTAGAAATGTCGTG (chemistry not fully specified)
OT1 (sgRNA Log(2) fold change, OT-I selection versus control T cells) [1]: -2.34
Pmel+ (sgRNA Log(2) fold change, Pmel-1 selection versus control T cells) [2]: -0.65

GCAAGAGGTTATCAAACACG (chemistry not fully specified)
OT1 (sgRNA Log(2) fold change, OT-I selection versus control T cells) [1]: -2.17
Pmel+ (sgRNA Log(2) fold change, Pmel-1 selection versus control T cells) [2]: -0.79

GCACTGCTCTCATAACCCAT (chemistry not fully specified)
OT1 (sgRNA Log(2) fold change, OT-I selection versus control T cells) [1]: -0.77
Pmel+ (sgRNA Log(2) fold change, Pmel-1 selection versus control T cells) [2]: 3.01

GCAGGGGTCTCCTTATGTCG (chemistry not fully specified)
OT1 (sgRNA Log(2) fold change, OT-I selection versus control T cells) [1]: -2.67
Pmel+ (sgRNA Log(2) fold change, Pmel-1 selection versus control T cells) [2]: -1.13

GCCAACATCTGCTTACTCGC (chemistry not fully specified)
OT1 (sgRNA Log(2) fold change, OT-I selection versus control T cells) [1]: -2.55
Pmel+ (sgRNA Log(2) fold change, Pmel-1 selection versus control T cells) [2]: -1.97

GCCAGCTTTCTCGCACGTGG (chemistry not fully specified)
OT1 (sgRNA Log(2) fold change, OT-I selection versus control T cells) [1]: -0.61
Pmel+ (sgRNA Log(2) fold change, Pmel-1 selection versus control T cells) [2]: -2.01

GCCCTTTACTTTCAGTACGG (chemistry not fully specified)
OT1 (sgRNA Log(2) fold change, OT-I selection versus control T cells) [1]: -2.52
Pmel+ (sgRNA Log(2) fold change, Pmel-1 selection versus control T cells) [2]: -0.93

GCCTGTACCACGCAGCCAAG (chemistry not fully specified)
OT1 (sgRNA Log(2) fold change, OT-I selection versus control T cells) [1]: -2.37
Pmel+ (sgRNA Log(2) fold change, Pmel-1 selection versus control T cells) [2]: 0.00

GCGTCGTCGACTTATGACTT (chemistry not fully specified)
OT1 (sgRNA Log(2) fold change, OT-I selection versus control T cells) [1]: -3.36
Pmel+ (sgRNA Log(2) fold change, Pmel-1 selection versus control T cells) [2]: -0.05

GCTCAAGTACTCGCCCGACC (chemistry not fully specified)
OT1 (sgRNA Log(2) fold change, OT-I selection versus control T cells) [1]: -2.85
Pmel+ (sgRNA Log(2) fold change, Pmel-1 selection versus control T cells) [2]: -0.69

GCTCACCACGGGCTGCAACG (chemistry not fully specified)
OT1 (sgRNA Log(2) fold change, OT-I selection versus control T cells) [1]: 0.43
Pmel+ (sgRNA Log(2) fold change, Pmel-1 selection versus control T cells) [2]: 2.34

GCTCGATGGATAGCATTCAC (chemistry not fully specified)
OT1 (sgRNA Log(2) fold change, OT-I selection versus control T cells) [1]: -3.98
Pmel+ (sgRNA Log(2) fold change, Pmel-1 selection versus control T cells) [2]: 0.17

GCTGCAGAGGCAGTTTGATG (chemistry not fully specified)
OT1 (sgRNA Log(2) fold change, OT-I selection versus control T cells) [1]: -3.06
Pmel+ (sgRNA Log(2) fold change, Pmel-1 selection versus control T cells) [2]: -0.70

GCTGCCCCGCAGGATCATCA (chemistry not fully specified)
OT1 (sgRNA Log(2) fold change, OT-I selection versus control T cells) [1]: -2.94
Pmel+ (sgRNA Log(2) fold change, Pmel-1 selection versus control T cells) [2]: -2.00

GCTGGGGAACTCAATTATAG (chemistry not fully specified)
OT1 (sgRNA Log(2) fold change, OT-I selection versus control T cells) [1]: -0.78
Pmel+ (sgRNA Log(2) fold change, Pmel-1 selection versus control T cells) [2]: 2.03

GCTGTGGGGACTGCTAAAAG (chemistry not fully specified)
OT1 (sgRNA Log(2) fold change, OT-I selection versus control T cells) [1]: -1.12
Pmel+ (sgRNA Log(2) fold change, Pmel-1 selection versus control T cells) [2]: 2.22

GCTGTTACTCCAGAGACACA (chemistry not fully specified)
OT1 (sgRNA Log(2) fold change, OT-I selection versus control T cells) [1]: -0.23
Pmel+ (sgRNA Log(2) fold change, Pmel-1 selection versus control T cells) [2]: -2.27

GGAAACGTGGCATGTCTCGG (chemistry not fully specified)
OT1 (sgRNA Log(2) fold change, OT-I selection versus control T cells) [1]: 1.93
Pmel+ (sgRNA Log(2) fold change, Pmel-1 selection versus control T cells) [2]: 2.66

GGAATCCCTGTGCTGATCGT (chemistry not fully specified)
OT1 (sgRNA Log(2) fold change, OT-I selection versus control T cells) [1]: -2.76
Pmel+ (sgRNA Log(2) fold change, Pmel-1 selection versus control T cells) [2]: -0.49

GGACAAGACATGGAGACAGA (chemistry not fully specified)
OT1 (sgRNA Log(2) fold change, OT-I selection versus control T cells) [1]: -2.11
Pmel+ (sgRNA Log(2) fold change, Pmel-1 selection versus control T cells) [2]: 0.83

GGACACCAAGTTATTCCGTG (chemistry not fully specified)
OT1 (sgRNA Log(2) fold change, OT-I selection versus control T cells) [1]: -3.20
Pmel+ (sgRNA Log(2) fold change, Pmel-1 selection versus control T cells) [2]: -2.89
